From US20210094920A1, “NR2B LIGANDS; METHOD OF MAKING; AND USE THEREOF” (THE UNITED STATES OF AMERICA, AS REPRESENTED BY THE …, priority 2018, published 2021)
Where two headings read alike, the source gives them in different places. Blank lines part the entries; values can stand above or below the compound they belong to.

Legend:
[1] = target: NR2B subunits in NMDA receptors (Rattus norvegicus, UniProt P35439+Q00960); experiment: PET imaging of brain in rats (baseline, preblock, displacement); details: for effect of pretreatment on brain radioactivity uptake / displacement of radioligand: radioligand [^11C]NR2B-SMe; for displacement of radioligand: given at 15 min after radioligand, over 90 min; for brain radioactivity uptake / washout of brain radioactivity: rats at baseline; for brain radioactivity uptake: i.v. radioligand, at 5 minutes; for washout of brain radioactivity: over 90 minutes
NR2B subunits in NMDA receptors (Rattus norvegicus, UniProt P35439+Q00960), sequence (Q00960 27-1482, other chains not shown): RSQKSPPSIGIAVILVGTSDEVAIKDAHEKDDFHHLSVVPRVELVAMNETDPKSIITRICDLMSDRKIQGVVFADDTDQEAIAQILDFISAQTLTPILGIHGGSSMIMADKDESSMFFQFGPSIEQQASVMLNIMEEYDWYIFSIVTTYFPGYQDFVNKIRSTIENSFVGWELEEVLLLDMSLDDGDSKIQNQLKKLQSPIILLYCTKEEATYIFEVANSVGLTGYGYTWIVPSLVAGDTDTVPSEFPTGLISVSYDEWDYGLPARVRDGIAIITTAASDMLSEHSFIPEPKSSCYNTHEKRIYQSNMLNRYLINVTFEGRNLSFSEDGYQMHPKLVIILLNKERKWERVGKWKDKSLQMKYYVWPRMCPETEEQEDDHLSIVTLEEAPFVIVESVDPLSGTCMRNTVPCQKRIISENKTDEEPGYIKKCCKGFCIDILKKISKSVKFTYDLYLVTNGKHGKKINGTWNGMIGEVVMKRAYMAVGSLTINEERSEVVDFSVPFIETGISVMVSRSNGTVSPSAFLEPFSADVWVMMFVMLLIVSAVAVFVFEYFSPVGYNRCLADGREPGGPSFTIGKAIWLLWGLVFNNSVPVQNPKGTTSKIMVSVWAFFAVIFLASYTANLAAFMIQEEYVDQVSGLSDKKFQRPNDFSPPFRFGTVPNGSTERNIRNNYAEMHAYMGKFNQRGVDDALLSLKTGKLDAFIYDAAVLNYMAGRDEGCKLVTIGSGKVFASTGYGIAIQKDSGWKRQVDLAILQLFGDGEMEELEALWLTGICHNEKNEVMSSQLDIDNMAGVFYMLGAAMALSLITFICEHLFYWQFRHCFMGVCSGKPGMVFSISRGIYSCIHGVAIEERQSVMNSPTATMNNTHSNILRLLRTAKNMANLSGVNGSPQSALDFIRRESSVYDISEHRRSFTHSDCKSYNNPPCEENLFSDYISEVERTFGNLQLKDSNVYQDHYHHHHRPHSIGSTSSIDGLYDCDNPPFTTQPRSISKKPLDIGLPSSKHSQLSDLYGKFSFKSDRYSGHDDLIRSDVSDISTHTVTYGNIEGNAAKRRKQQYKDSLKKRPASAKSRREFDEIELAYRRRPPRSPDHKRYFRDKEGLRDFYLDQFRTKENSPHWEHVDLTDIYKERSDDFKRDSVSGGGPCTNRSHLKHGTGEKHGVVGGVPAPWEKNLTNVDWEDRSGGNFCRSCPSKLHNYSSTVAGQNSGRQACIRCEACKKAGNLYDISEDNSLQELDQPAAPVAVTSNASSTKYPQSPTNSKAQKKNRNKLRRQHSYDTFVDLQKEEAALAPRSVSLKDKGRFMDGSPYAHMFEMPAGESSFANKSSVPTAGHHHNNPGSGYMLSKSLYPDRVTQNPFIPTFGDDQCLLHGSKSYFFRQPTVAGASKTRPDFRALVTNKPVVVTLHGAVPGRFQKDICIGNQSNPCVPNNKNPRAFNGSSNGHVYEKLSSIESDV
Experimental: Displacement studies where NR2B-SMe or eliprodil was given at 15 min after radioligand were also performed.

σ1 receptor = σ1 receptor (Homo sapiens, UniProt Q99720); experiment: σ1 receptor binding at 10 μM
σ1 receptor, sequence (Q99720 whole entry): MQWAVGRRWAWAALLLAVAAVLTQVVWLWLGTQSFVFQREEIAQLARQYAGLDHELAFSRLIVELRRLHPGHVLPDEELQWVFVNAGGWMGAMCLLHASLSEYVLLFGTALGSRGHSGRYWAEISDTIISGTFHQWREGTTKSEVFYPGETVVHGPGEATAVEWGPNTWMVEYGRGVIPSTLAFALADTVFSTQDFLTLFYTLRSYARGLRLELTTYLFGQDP
Experimental: (§1) All derivatives were evaluated for binding to the NR2B site and other neuro-targets. Table 1 provides the structures of the derivatives, molecular weight, calculated Log D values, the structure-activity relationship, and binding data.

σ2 receptor = σ2 receptor (Homo sapiens, UniProt Q5BJF2); experiment: σ2 receptor binding at 10 μM
σ2 receptor, sequence (Q5BJF2 whole entry, species assumed): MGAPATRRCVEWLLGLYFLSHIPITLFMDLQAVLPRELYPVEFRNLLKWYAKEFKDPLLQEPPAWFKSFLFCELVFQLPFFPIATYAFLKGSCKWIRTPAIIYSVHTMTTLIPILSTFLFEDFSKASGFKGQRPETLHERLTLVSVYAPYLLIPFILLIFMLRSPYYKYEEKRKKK
Experimental: as §1

NR2B site = NR2B site (Homo sapiens, UniProt Q05586+Q13224); experiment: binding to the NR2B site (Ki, automatic and manual); details: for affinity for NR2B: stated in words
NR2B site, sequence (Q13224 27-1484, other chains not shown): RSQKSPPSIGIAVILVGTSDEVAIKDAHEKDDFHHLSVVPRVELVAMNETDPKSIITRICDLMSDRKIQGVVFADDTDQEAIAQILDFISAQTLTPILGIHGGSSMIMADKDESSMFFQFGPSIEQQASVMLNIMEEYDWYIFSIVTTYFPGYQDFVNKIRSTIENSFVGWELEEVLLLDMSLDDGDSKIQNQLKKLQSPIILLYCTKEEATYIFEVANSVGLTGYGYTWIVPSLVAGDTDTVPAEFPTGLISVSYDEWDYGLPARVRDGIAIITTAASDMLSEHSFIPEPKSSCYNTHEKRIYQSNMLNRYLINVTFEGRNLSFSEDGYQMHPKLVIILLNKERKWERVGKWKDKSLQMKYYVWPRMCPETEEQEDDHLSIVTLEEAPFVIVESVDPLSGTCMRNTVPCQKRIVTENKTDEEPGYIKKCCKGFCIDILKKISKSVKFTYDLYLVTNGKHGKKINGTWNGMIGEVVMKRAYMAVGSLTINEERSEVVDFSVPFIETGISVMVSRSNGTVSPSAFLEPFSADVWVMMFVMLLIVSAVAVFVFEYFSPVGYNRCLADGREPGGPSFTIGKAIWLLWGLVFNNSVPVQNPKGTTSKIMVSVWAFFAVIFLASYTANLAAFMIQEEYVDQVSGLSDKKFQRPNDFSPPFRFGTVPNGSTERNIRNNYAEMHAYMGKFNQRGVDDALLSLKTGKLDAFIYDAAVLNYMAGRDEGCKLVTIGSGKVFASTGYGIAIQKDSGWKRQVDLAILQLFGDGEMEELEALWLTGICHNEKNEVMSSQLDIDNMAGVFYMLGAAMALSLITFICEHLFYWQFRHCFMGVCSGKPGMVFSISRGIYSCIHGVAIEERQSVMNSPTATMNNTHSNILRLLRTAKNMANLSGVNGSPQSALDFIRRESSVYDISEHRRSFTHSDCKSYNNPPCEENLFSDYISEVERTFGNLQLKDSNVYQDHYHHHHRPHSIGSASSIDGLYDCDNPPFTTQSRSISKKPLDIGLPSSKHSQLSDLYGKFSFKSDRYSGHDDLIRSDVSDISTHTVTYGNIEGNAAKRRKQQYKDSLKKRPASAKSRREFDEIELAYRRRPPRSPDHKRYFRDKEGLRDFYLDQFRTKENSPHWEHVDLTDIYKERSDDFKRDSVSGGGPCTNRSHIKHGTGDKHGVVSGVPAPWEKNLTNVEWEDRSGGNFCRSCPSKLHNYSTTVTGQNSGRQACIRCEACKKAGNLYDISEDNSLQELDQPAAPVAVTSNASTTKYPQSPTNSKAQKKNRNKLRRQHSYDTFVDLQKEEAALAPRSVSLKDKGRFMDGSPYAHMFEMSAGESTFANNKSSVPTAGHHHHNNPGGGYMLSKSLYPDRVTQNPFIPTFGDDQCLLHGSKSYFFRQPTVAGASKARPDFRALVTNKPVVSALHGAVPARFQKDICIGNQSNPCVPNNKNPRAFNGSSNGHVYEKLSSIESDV
Experimental: as §1

[2] = system: NR2B subunits in NMDA receptors; experiment: Brain PET imaging (VT/fP) in monkey (baseline, Co101244 block, self-block); assay type: in vivo
Excerpt: Table 2 provides the normalized total volume of distribution (VT/fP) (ml/cm^3) for whole brain and specific regions of the brain at baseline, Co101244 (1-[2-(4-hydroxyphenoxy)ethyl]-4-[(4-methylphenyl)methyl]-4-piperidinol) block and self-block.

[3] = system: NR2B subunits in NMDA receptors; experiment: as above; assay type: in vivo; remark: listed apart in the source
[4] = automatic, read-out: Ki (nM), automatic
[5] = manual, read-out: Ki (nM), manual
[6] = rats, 0.01-3 mg/kg, i.v. at 15 min before radioligand injection

displacement of radioligand ([1]; rats): failed to displace radioligand
Structure (SMILES): OC(CN1CCC(Cc2ccc(F)cc2)CC1)c1ccc(Cl)cc1 (stereo not drawn) [Eliprodil, reference compound]
effect of pretreatment on brain radioactivity uptake ([1]; rats, 3 mg/kg i.v): blocked brain radioactivity uptake to the similar high extent

brain radioactivity uptake [1]: 3.0 SUV
washout of brain radioactivity [1]: slow washout
Structure (SMILES): COc1ccc2c(c1)CCN(CCCCc1ccc(C)cc1)CC2O (stereo not drawn) [[^11C]NR2B-Me, 7-methoxy-3-(4-(4-methylphenyl)butyl)-2,3,4,5-tetrahydro-1H-benzo[d]azepin-1-ol]

inhibition at 10 µM (σ1 receptor): 40.8%
inhibition at 10 µM (σ2 receptor): 56.4%
Structure (SMILES): COc1ccc2c(c1)CCN(CCC#Cc1cccc(F)n1)CC2O (stereo not drawn) [Compound 8]

inhibition at 10 µM (σ1 receptor): 89.7%
Ki (NR2B site; [4]): 31.3 nM
Ki (NR2B site; [5]): 4.9 nM
affinity for NR2B (NR2B site): in the nM range
inhibition at 10 µM (σ2 receptor): 90.7%
Structure (SMILES): COc1ccc2c(c1)CCN(CCCCc1ccc(C)cc1)CC2O (stereo not drawn) [Compound 4, 7-methoxy-3-(4-(4-methylphenyl)butyl)-2,3,4,5-tetrahydro-1H-benzo[d]azepin-1-ol]

inhibition at 10 µM (σ1 receptor): 83.7%
inhibition at 10 µM (σ2 receptor): 90%
Structure (SMILES): COc1ccc2c(c1)CCN(CCCCc1ccc(Br)cc1)CC2O (stereo not drawn) [Compound 5]

inhibition at 10 µM (σ1 receptor): 84.4%
Structure (SMILES): COc1ccc2c(c1)CCN(CCCCc1ccc3ccccc3c1)CC2O (stereo not drawn) [Compound 2]

inhibition at 10 µM (σ2 receptor): 91.4%
Structure (SMILES): COc1ccc(CCCCN2CCc3cc(OC)ccc3C(O)C2)cc1 (stereo not drawn) [Compound 3]

inhibition at 10 µM (σ1 receptor): 66.4%
inhibition at 10 µM (σ2 receptor): 74.2%
Structure (SMILES): COc1ccc2c(c1)CCN(CCC#Cc1ccccn1)CC2O (stereo not drawn) [Compound 7]

Structure (SMILES): COc1ccc2c(c1)CCN(CCCCc1ccc(SC)cc1)CC2O (stereo not drawn) [Compound 9, 7-methoxy-3-(4-(4-(methylthio)phenyl)butyl)-2,3,4,5-tetrahydro-1H-benzo[d]azepin-1-ol]
effect of pretreatment on brain radioactivity uptake [1, 6]: blocked brain radioactivity uptake in a dose-dependent manner
displacement of radioligand ([1]; rats): only slow and low displacement
Ki (NR2B site; [4]): 20 nM
affinity for NR2B (NR2B site): in the nM range

Structure (SMILES): CC(C(O)c1ccc(O)cc1)N1CCC(Cc2ccccc2)CC1 (stereo not drawn) [ifendopril, reference compound]
effect of pretreatment on brain radioactivity uptake ([1]; rats, 3 mg/kg i.v): blocked brain radioactivity uptake to the similar high extent

inhibition at 10 µM (σ1 receptor): 89.1%
Ki (NR2B site; [4]): 43.5 nM
Ki (NR2B site; [5]): 9.8 nM
inhibition at 10 µM (σ2 receptor): 87.8%
Structure (SMILES): COc1ccc2c(c1)CCN(CCCCc1ccccc1)CC2O (stereo not drawn) [Compound 1, 7-methoxy-3-(4-phenylbutyl)-2,3,4,5-tetrahydro-1H-benzo[d]azepin-1-ol, reference compound]

displacement ([1]; PET imaging in rats): 65%
preblocking ([1]; PET imaging in rats): 95%
reversibility of binding ([1]; PET imaging in rats): reversible binding
washout of brain radioactivity [1]: slow washout
brain radioactivity uptake (in words) ([1]; rats, within 5 minutes): very high
Normalized Total Volume of Distribution (VT/fp) ([2]; Amygdala, Baseline Ave.): 3171.1 ml/cm^3
Normalized Total Volume of Distribution (VT/fp) ([2]; Amygdala, Co101244 block): 515.5 ml/cm^3
Normalized Total Volume of Distribution (VT/fp) ([2]; Amygdala, Self-block): 405.4 ml/cm^3
Normalized Total Volume of Distribution (VT/fp) ([2]; Cerebellum, Baseline Ave.): 1465.9 ml/cm^3
Normalized Total Volume of Distribution (VT/fp) ([2]; Cerebellum, Co101244 block): 426.4 ml/cm^3
Normalized Total Volume of Distribution (VT/fp) ([2]; Cerebellum, Self-block): 348.6 ml/cm^3
Normalized Total Volume of Distribution (VT/fp) ([2]; Cingulate Cortex, Baseline Ave.): 2388.9 ml/cm^3
Normalized Total Volume of Distribution (VT/fp) ([2]; Cingulate Cortex, Co101244 block): 523.3 ml/cm^3
Normalized Total Volume of Distribution (VT/fp) ([2]; Cingulate Cortex, Self-block): 400.0 ml/cm^3
Normalized Total Volume of Distribution (VT/fp) ([2]; Frontal Cortex, Baseline Ave.): 2254.5 ml/cm^3
Normalized Total Volume of Distribution (VT/fp) ([2]; Frontal Cortex, Co101244 block): 562.0 ml/cm^3
Normalized Total Volume of Distribution (VT/fp) ([2]; Frontal Cortex, Self-block): 451.4 ml/cm^3
Normalized Total Volume of Distribution (VT/fp) ([2]; Hippocampus, Baseline Ave.): 2389.6 ml/cm^3
Normalized Total Volume of Distribution (VT/fp) ([2]; Hippocampus, Co101244 block): 465.1 ml/cm^3
Normalized Total Volume of Distribution (VT/fp) ([2]; Hippocampus, Self-block): 370.3 ml/cm^3
Normalized Total Volume of Distribution (VT/fp) ([2]; Insula, Baseline Ave.): 2314.2 ml/cm^3
Normalized Total Volume of Distribution (VT/fp) ([2]; Insula, Co101244 block): 542.6 ml/cm^3
Normalized Total Volume of Distribution (VT/fp) ([2]; Insula, Self-block): 408.1 ml/cm^3
Normalized Total Volume of Distribution (VT/fp) ([2]; Occipital Lobe, Baseline Ave.): 1676.3 ml/cm^3
Normalized Total Volume of Distribution (VT/fp) ([2]; Occipital Lobe, Co101244 block): 484.5 ml/cm^3
Normalized Total Volume of Distribution (VT/fp) ([2]; Occipital Lobe, Self-block): 402.7 ml/cm^3
Normalized Total Volume of Distribution (VT/fp) ([2]; Parietal Lobe, Baseline Ave.): 2001.4 ml/cm^3
Normalized Total Volume of Distribution (VT/fp) ([2]; Parietal Lobe, Co101244 block): 538.8 ml/cm^3
Normalized Total Volume of Distribution (VT/fp) ([2]; Parietal Lobe, Self-block): 440.5 ml/cm^3
Normalized Total Volume of Distribution (VT/fp) ([2]; Striatum, Baseline Ave.): 1965.2 ml/cm^3
Normalized Total Volume of Distribution (VT/fp) ([2]; Striatum, Co101244 block): 573.6 ml/cm^3
Normalized Total Volume of Distribution (VT/fp) ([2]; Striatum, Self-block): 437.8 ml/cm^3
Normalized Total Volume of Distribution (VT/fp) ([2]; Temporal Lobe, Baseline Ave.): 1956.8 ml/cm^3
Normalized Total Volume of Distribution (VT/fp) ([2]; Temporal Lobe, Co101244 block): 476.7 ml/cm^3
Normalized Total Volume of Distribution (VT/fp) ([2]; Temporal Lobe, Self-block): 373.0 ml/cm^3
Normalized Total Volume of Distribution (VT/fp) ([2]; Thalamus, Baseline Ave.): 2385.1 ml/cm^3
Normalized Total Volume of Distribution (VT/fp) ([2]; Thalamus, Co101244 block): 596.9 ml/cm^3
Normalized Total Volume of Distribution (VT/fp) ([2]; Thalamus, Self-block): 445.9 ml/cm^3
Normalized Total Volume of Distribution (VT/fp) ([2]; Whole Brain, Baseline Ave.): 1959.7 ml/cm^3
Normalized Total Volume of Distribution (VT/fp) ([2]; Whole Brain, Co101244 block): 511.6 ml/cm^3
Normalized Total Volume of Distribution (VT/fp) ([2]; whole brain, self-block): 408.1 ml/cm^3
time after radioligand injection from which V showed time stability [3]: ≥ 80 min
Structure (SMILES): COc1ccc2c(c1)CCN(CCCCc1ccc(C)cc1)C[C@@H]2O [[^11C]NR2B-MeI, (R)(−)7-methoxy-3-(4-(4-methylphenyl)butyl)-2,3,4,5-tetrahydro-1H-benzo[d]azepin-1-ol]
binding potential of whole brain, BPND ([2]; whole brain, Co101244): 3.8
binding potential of whole brain, BPND ([3]; whole brain, self-block): 4.6

inhibition at 10 µM (σ1 receptor): 57.9%
inhibition at 10 µM (σ2 receptor): 76.9%
Structure (SMILES): COc1ccc2c(c1)CCN(CCCCc1ccc(F)cc1)CC2O (stereo not drawn) [Compound 6]

Structure (SMILES): COc1ccc(CCN2CCN(CCCc3ccccc3)CC2)cc1OC [SA 4503, reference compound]
effect of pretreatment on brain radioactivity uptake [1, 6]: blocked brain radioactivity uptake in a dose-dependent manner

Structure (SMILES): COc1ccc2c(c1)CCN(CCCCc1ccc(SC)cc1)CC2O (stereo not drawn) [[^11C]NR2B-SMe, [^11C] 7-methoxy-3-(4-(4-(methylthio)phenyl)butyl)-2,3,4,5-tetrahydro-1H-benzo[d]azepin-1-ol]
brain radioactivity uptake [1]: 3.5 SUV
washout of brain radioactivity [1]: very low washout
